Source: patent publication US20050106305A1, “Beverage compositions comprising monatin and methods of making same” (Cargill, Inc., priority 2003, published 2005)
Like-named read-outs stand apart in the source and are kept apart here.

How the values were obtained:
[1] = Sensory evaluation of soft drinks (lemon/lime, orangeade, cola); assay type: in vivo; details: Cola; aspartame 550 ppm, sucralose 220 ppm, R,R monatin 45 ppm
Procedure: Beverages (cola, lemon-lime and orange) were formulated and sweetened with aspartame, sucralose or R,R monatin. Qualitative evaluation was carried out.
The term “throw” refers to dilution in water. For example, a throw of “1+4” means 1 part concentrate formulation to 4 parts water. Thus, if a concentrate formulation includes 0.021% wt/vol (i.e., 210 ppm) of R,R monatin, for example, a throw of 1+4 makes a diluted beverage containing 42 ppm (210 ppm/5) R,R monatin.
Final ready-to-drink beverages (after throw) contained sweetener concentrations as follows:
Evaluation of these soft drinks was carried out by a panel (n=6) of assessors who evaluated each set of drinks on separate tasting occasions.

[2] = Sensory stability of monatin and aspartame at pH 2.5, 3.0, 4.0 at 40° C.; assay type: physicochemical; details: for Rate constant (k) of sweetness loss / half-life: pseudo-first order assumed; for SEV / Retention of Sweetness: stored 40° C., monatin ~55 ppm, aspartame 400 ppm; for half-life: phosphate/citrate buffer, read-out: Half-life (t½) of sweetness loss (converted)
Procedure: The sensory stability of monatin solutions prepared at pH 2.5, 3.0 and 4.0 and stored at 40° C. was monitored for 100 days. Loss of sweetness from these solutions was compared with the losses of sweetness from aspartame solutions prepared and stored under identical conditions.
The sensory stability of monatin (8% SEV, ˜55 ppm, synthetic blend containing approximately 96% of the 2R,4R/2S, 4S enantiometric pair and 4% of the 2R,4S/2S,4R enantiometric pair) in phosphate/citrate buffers having a pH of 2.5, 3.0, and 4.0 was examined after storage at 40° C. The stability of monatin was compared to that of aspartame (400 ppm) in the same buffers. Three sucrose reference solutions were prepared in the same phosphate/citrate buffers as the monatin and aspartame solutions. All prepared solutions were stored in the dark.
Buffer compositions: pH 2.5 Phosphoric acid (75% solution) 0.127% (w/v) Tri-sodium citrate monohydrate 0.005% (w/v) • pH 3.0 Phosphoric acid (75% solution) 0.092% (w/v) Tri-sodium citrate monohydrate 0.031% (w/v) • pH 4.0 Phosphoric acid (75% solution) 0.071% (w/v) Tri-sodium citrate monohydrate 0.047% (w/v)
The sweetness of each sweetener relative to sucrose was assessed in duplicate by a panel (n=8) of trained sensory evaluators experienced in the sweetness estimation procedure. All samples (in the same buffers) were served in duplicate at a temperature of 22° C.±1° C. Monatin (test) solutions, coded with 3 digit random number codes were presented individually to panelists, in random order. Sucrose reference standards, ranging from 4.0-10.0% (w/v) sucrose, increasing in steps of 0.5% (w/v) sucrose were also provided. Panelists were asked to estimate sweetness by comparing the sweetness of the test solution to the sucrose standards. This was carried out by taking 3 sips of the test solution, followed by a sip of water, followed by 3 sips of sucrose standard followed by a sip of water, etc. Panelists were encouraged to estimate the sweetness to one decimal place, e.g., 6.8, 8.5. A five minute rest period was imposed between evaluating the test solutions. Panelists were also asked to rinse well and eat a cracker to reduce any potential carry over effects.
If a pseudo-first order breakdown reaction is assumed, a plot of logn percentage retention versus time (logn%RTN v. t) allows estimation of the half-life (t½) and rate constant (k) of sweetness loss under any given set of conditions. In so doing, the kinetics of monatin and aspartame sweetness loss may be summarized as follows in Table 25.

[3] = Taste profiling of lemon/lime carbonates and colas; assay type: in vivo; details: HFCS 10%, aspartame 500 ppm, sucralose 200 ppm, blends 30.8 ppm/5.0%; for Average Score: score 1, poor-5, good, sucrose 10%
Procedure: Cola and lemon/lime beverages were prepared using the following formulations and sweetened with sucrose, HFCS (55% fructose), aspartame, sucralose, monatin (racemic mix described in Example 14), monatin/sucrose, or monatin/HFCS. One part of syrup was added to 5.5 parts carbonated water and evaluated.
Assessments were carried out ‘double blind’ by a panel of trained tasters. The sucrose-sweetened product was identified as the control and all other products randomly coded. Panelists were asked to assess the randomly coded sample relative to the control for the following attributes:
Panelists also were asked assign a score (1; poor-5; good) for the quality of the sweetener system. A summary of the comments generated together with the average score awarded is presented in Tables 12 and 13 for lemon/lime carbonates and colas, respectively. […] Blends of monatin/carbohydrate rated higher. In the cola, monatin was similar to aspartame.

[4] = cola, sucrose 10% (control), monatin 80 ppm
[5] = lemon/lime carbonate, sucrose 10% (control), monatin 67 ppm

## NC(CC(O)(Cc1c[nH]c2ccccc12)C(=O)O)C(=O)O (racemic) [Monatin, 2-hydroxy-2-(indol-3-ylmethyl)-4-aminoglutaric acid]
[1]
  Comments (sensory evaluation): Overall, judged quite similar qualitatively
[2]; after 100 days storage at pH 2.5 at 40° C.
  Sweetness Retained: 29%
[2]; after 100 days storage at pH 3.0 at 40° C.
  Sweetness Retained: 58%
[2]; after 100 days storage at pH 4.0 at 40° C.
  Sweetness Retained: 78%
[2]; pH 2.5, 40° C.
  Rate constant (k) of sweetness loss: 0.011 day⁻¹
  half-life: 65 days
[2]; pH 2.5 buffer, day 0
  SEV: 7.35 % sucrose
[2]; pH 2.5 buffer, day 1
  Retention of Sweetness: 93.3%
  SEV: 6.86 % sucrose
[2]; pH 2.5 buffer, day 2
  Retention of Sweetness: 91.2%
  SEV: 6.70 % sucrose
[2]; pH 2.5 buffer, day 3
  Retention of Sweetness: 88.4%
  SEV: 6.50 % sucrose
[2]; pH 2.5 buffer, day 4
  Retention of Sweetness: 85.2%
  SEV: 6.26 % sucrose
[2]; pH 2.5 buffer, day 7
  Retention of Sweetness: 82.7%
  SEV: 6.08 % sucrose
[2]; pH 2.5 buffer, day 8
  Retention of Sweetness: 81.4%
  SEV: 5.98 % sucrose
[2]; pH 2.5 buffer, day 9
  Retention of Sweetness: 80.1%
  SEV: 5.89 % sucrose
[2]; pH 2.5 buffer, day 11
  Retention of Sweetness: 78.6%
  SEV: 5.78 % sucrose
[2]; pH 2.5 buffer, day 50
  Retention of Sweetness: 62.7%
  SEV: 4.61 % sucrose
[2]; pH 2.5 buffer, day 100
  Retention of Sweetness: 28.6%
  SEV: 2.10 % sucrose
[2]; pH 3.0, 40° C.
  Rate constant (k) of sweetness loss: 0.006 day⁻¹
  half-life: 115 days
[2]; pH 3.0 buffer, day 0
  SEV: 7.08 % sucrose
[2]; pH 3.0 buffer, day 1
  Retention of Sweetness: 99.6%
  SEV: 7.05 % sucrose
[2]; pH 3.0 buffer, day 2
  Retention of Sweetness: 93.2%
  SEV: 6.60 % sucrose
[2]; pH 3.0 buffer, day 3
  Retention of Sweetness: 91.4%
  SEV: 6.47 % sucrose
[2]; pH 3.0 buffer, day 4
  Retention of Sweetness: 91.6%
  SEV: 6.49 % sucrose
[2]; pH 3.0 buffer, day 7
  Retention of Sweetness: 85.3%
  SEV: 6.04 % sucrose
[2]; pH 3.0 buffer, day 8
  Retention of Sweetness: 83.8%
  SEV: 5.93 % sucrose
[2]; pH 3.0 buffer, day 9
  Retention of Sweetness: 83.1%
  SEV: 5.88 % sucrose
[2]; pH 3.0 buffer, day 11
  Retention of Sweetness: 83.1%
  SEV: 5.88 % sucrose
[2]; pH 3.0 buffer, day 50
  Retention of Sweetness: 72.3%
  SEV: 5.12 % sucrose
[2]; pH 3.0 buffer, day 100
  Retention of Sweetness: 57.9%
  SEV: 4.10 % sucrose
[2]; pH 4.0, 40° C.
  Rate constant (k) of sweetness loss: 0.003 day⁻¹
  half-life: 230 days
[2]; pH 4.0 buffer, day 0
  SEV: 7.40 % sucrose
[2]; pH 4.0 buffer, day 3
  Retention of Sweetness: 95.7%
  SEV: 7.08 % sucrose
[2]; pH 4.0 buffer, day 8
  Retention of Sweetness: 86.8%
  SEV: 6.42 % sucrose
[2]; pH 4.0 buffer, day 11
  Retention of Sweetness: 85.9%
  SEV: 6.36 % sucrose
[2]; pH 4.0 buffer, day 17
  Retention of Sweetness: 82.4%
  SEV: 6.10 % sucrose
[2]; pH 4.0 buffer, day 24
  Retention of Sweetness: 84.5%
  SEV: 6.25 % sucrose
[2]; pH 4.0 buffer, day 50
  Retention of Sweetness: 82.9%
  SEV: 6.14 % sucrose
[2]; pH 4.0 buffer, day 100
  Retention of Sweetness: 78.4%
  SEV: 5.80 % sucrose
[3]; [4]
  Aftertaste: Some lingering
  Mouthfeel: Thinner than control.
[3]; [5]
  Aftertaste: Quite clean, slight
  Mouthfeel: Slightly less
  Sweetness Profile: Slight delay in onset -
[3]; cola, monatin 80 ppm
  Average Score: 2.9
[3]; lemon/lime carbonate, monatin 67 ppm
  Average Score: 4.0
